The source of these data is patent publication US5789186A, “Marker for cerebral apoplexy” (Oriental Yeast Co., Ltd., priority 1995, dated 1998).

Holding throughout (assay type): biochemical
In one assay the test system is M-type isozyme (PGAM-MM). Kind of assay: Inhibition test using purified PGAM isozymes, M-type. The following applies: treatment with tetrathionic acid as PGAM inhibitor. The text has this: (§1) The assay method according to the present invention comprises treating a blood sample such as serum with a PGAM inhibitor to inactivate a specific isozyme, and then determining residual PGAM activity. For example, when tetrathionic acid is used as the PGAM inhibitor, almost 100% of M-type isozyme activity and about 50% of MB-type isozyme activity are lost, while B-type isozyme activity is hardly lost. Therefore, the B-type isozyme can be separately quantified by adding tetrathionic acid to serum to inactivate the M-type isozyme and measuring residual PGAM activity.
(§2) Incidently, according to the inhibition test using purified PGAM isozymes, only 50% of MB-type isozyme activity is lost by the treatment with tetrathionic acid, and 50% of the activity remains. However, since most of PGAM activities in normal serum and cerebral tissues are attributed to the B-type isozyme, residual activity of the MB-type isozyme can be practically disregarded in the case of diagnosis of cerebral apoplexy in a biological sample.

For a further assay, the system named is B-type isozyme (PGAM-BB). Kind of assay: Inhibition test using purified PGAM isozymes, B-type. The following applies: treatment with tetrathionic acid as PGAM inhibitor.
From the text: as §1, §2

In another assay the target is PGAM-M (Homo sapiens, UniProt P15259). The assay can be described thus: Effect of potassium tetrathionate on PGAM-M standard, automatic assay method (NADH decrease rate assay). The text has this:
(§3) Namely, 3-phosphoglycerate (Glycerate-3-P) is converted into 2-phosphoglycerate (Glycerate-2-P) by PGAM-B in the presence of 2,3-bisphosphoglycerate (Glycerate-2,3-P2) and the resulting product is converted into PEP and H2 O by enolase. Then, PEP is converted into pyruvate and ATP by pyruvate kinase (PK) in the presence of ADP, and lactate dehydrogenase (LDH) is acted on pyruvate thus obtained in the presence of NADH to conduct the rate assay of the decrease of NADH.
(§4) Effect of potassium tetrathionate on PGAM-B and PGAM-M was examined by an automatic assay method.
(§5) Standard preparations of the B-type and M-type isozymes (pooled serum base) were used as samples. These were diluted 1/1 to 1/8 with physiological saline to serve as samples. To the thus prepared samples were added potassium tetrathionate of various concentrations. After the reaction was carried out for 5 minutes, the quantity of the B-type and M-type PGAMs were determined by the automatic assay method.
(§6) The quantity of PGAM-B and PGAM-M were respectively determined using the reagent of Example 2 by the automatic assay method, and the results shown in Table 2 below were obtained.
(§7) Potassium tetrathionate (molecular weight of 302.4) was added to and dissolved in the PGAM activity assay reagent (R-1) so as to give a concentration of 2.25 mM (final concentration of 1.9 mM) (15 mg of potassium tetrathionate was dissolved in 22 ml of the R-1 reagent) and the M-type isozyme was inactivated to prepare a B-type PGAM activity assay reagent.
(§8) Five μl of a serum sample was combined with 250 μl of the solution of Reagent 1 (R-1) in which potassium tetrathionate was dissolved, and the mixture was allowed to stand for 5 minutes. During this period, the M-type (and MB-type) PGAM was inactivated and inhibited, and then the B-type PGAM activity was determined using Reagent 2 (R-2).
(§9) The reaction was initiated (substrate start) by adding 41 μl of Reagent 2 (R-2) because it contained glycerate-3-phosphate (substrate). The assay was started about 1.5 minutes after the addition of Reagent 2.
(§10) The assay was carried out using Hitachi 7150 model automatic analyzer with setting the assay code to RATE-A: 32-39 and the measuring temperature to 37° C. The decrease in absorbance A 340 nm associated with the decrease of NADH was measured for about 1.5 minutes. It should be noted that the assay was carried out at the secondary wavelength of 405 nm.
(§11) One unit of the enzyme (1 U: 1 unit) was defined as the amount of the enzyme that reduces 1 μmol of NADH for 1 minute at 37° C. Actual measured values were calculated by multiplying the rate assay value by a calibrating factor (K FACTOR).

Another assay deals with PGAM-B (Homo sapiens, UniProt P18669). Kind of assay: Effect of potassium tetrathionate on PGAM-B standard, automatic assay method (NADH decrease rate assay). The following applies: for activity at 1900 µM / activity at 3800 µM / activity at 7600 µM: 5 min, PGAM-B standard (pooled serum base), 5 min reaction, read-out: PGAM-B activity relative to 0 mM potassium tetrathionate (=100); for activity at 1900 µM: final concentration 1.9 mM; for activity at 3800 µM: final concentration 3.8 mM; for activity at 7600 µM: final concentration 7.6 mM.
From the text: as §3, §4, §5, §6, §7, §8, §9, §10, §11

The mark [1] stands for this setting: dilution rate 1/1 (control 183 U/L).
[2] abbreviates: dilution rate 1/2 (control 91 U/L).
Where [3] appears, read: dilution rate 1/4 (control 46 U/L).
The mark [4] stands for this setting: dilution rate 1/8 (control 22 U/L).

Like-named read-outs stand apart in the source and are kept apart here.

Sequence of PGAM-B (P18669 whole entry): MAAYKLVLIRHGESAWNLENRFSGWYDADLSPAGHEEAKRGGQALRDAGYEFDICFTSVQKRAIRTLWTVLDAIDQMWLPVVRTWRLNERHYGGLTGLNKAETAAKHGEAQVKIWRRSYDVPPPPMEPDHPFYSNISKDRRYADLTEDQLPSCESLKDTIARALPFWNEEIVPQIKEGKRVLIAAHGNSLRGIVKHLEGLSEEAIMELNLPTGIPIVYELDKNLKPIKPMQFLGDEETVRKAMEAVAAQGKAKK
Sequence of PGAM-M (P15259 whole entry): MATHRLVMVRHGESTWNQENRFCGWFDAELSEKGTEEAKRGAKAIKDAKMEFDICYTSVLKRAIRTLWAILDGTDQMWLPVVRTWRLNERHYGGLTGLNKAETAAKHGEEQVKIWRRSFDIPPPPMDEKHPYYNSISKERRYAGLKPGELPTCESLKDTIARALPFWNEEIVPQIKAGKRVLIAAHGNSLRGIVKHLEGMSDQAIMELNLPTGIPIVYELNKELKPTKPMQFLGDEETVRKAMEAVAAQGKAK

Take `O=S(=O)(O)SSS(=O)(=O)O` [tetrathionic acid]: the “M-type isozyme activity lost” value in the assay on M-type isozyme (PGAM-MM) is reported as roughly 100%. Moreover, in the assay on B-type isozyme (PGAM-BB), the “B-type isozyme activity lost (in words)” value is on record as “hardly lost”.
Regarding `O=S(=O)([O-])SSS(=O)(=O)[O-].[K+].[K+]` [potassium tetrathionate], the activity at 1900 µM at PGAM-M (5 min, PGAM-M standard (pooled serum base), dilution rate 1/8 (control 332 U/L), final concentration 1.9 mM, 5 min reaction, read-out: PGAM-M activity relative to 0 mM potassium tetrathionate (=100)) was 0%; on PGAM-B (setting [1]), 98%; on PGAM-B (setting [2]) it was 98%; on PGAM-B (setting [3]), 97%; on PGAM-B (setting [4]) it was 93%. Moreover, the activity at 3800 µM on PGAM-M (5 min, PGAM-M standard (pooled serum base), dilution rate 1/8 (control 332 U/L), final concentration 3.8 mM, 5 min reaction, read-out: PGAM-M activity relative to 0 mM potassium tetrathionate (=100)) was 0%; on PGAM-B (setting [1]) it was 92%; on PGAM-B (setting [2]) it was 91%; at PGAM-B (setting [3]) it was 86%; on PGAM-B (setting [4]) it was 93%. The activity at 7600 µM on PGAM-M (5 min, PGAM-M standard (pooled serum base), dilution rate 1/8 (control 332 U/L), final concentration 7.6 mM, 5 min reaction, read-out: PGAM-M activity relative to 0 mM potassium tetrathionate (=100)) amounted to 0%; on PGAM-B (setting [1]) it was 81%; on PGAM-B (setting [2]), 80%; on PGAM-B (setting [3]), 59%; at PGAM-B (setting [4]), 75%. The “Effect on the M-type isozyme (in words)” value at PGAM-M (summary of Table 2) is on record as “specifically inactivated”. The “Effect on the B-type isozyme (in words)” value on PGAM-B (summary of Table 2) is recorded as “no effect was observed”.
